Counter-ions that a name gives are not always drawn. Like-named read-outs stand apart in the source and are kept apart here. Residues, ends and D or L forms follow the SMILES beside them. No end group written: not given here. *: point of attachment. Doxorubicin(3'-N) = COc1cccc2c1C(=O)c1c(O)c3c(c(O)c1C2=O)C[C@@](O)(C(=O)CO)C[C@@H]3O[C@H]1C[C@H](N*)[C@H](O)[C@H](C)O1; acyl = not defined here; DOX = doxorubicin

Data set [1] has as its system H9C2 cells. Kind of data set: Cytotoxicity CCK-8. The class given is cell-based, rat. The settings on record: for IC50: 48 hours, CCK-8, normal cells (cardiomyocytes). The procedure:
(§1) In addition, cytotoxicity was investigated using CCK-8 (cell counting kit-8). Specifically, 1×10^4 HT29 cells and 0.5×10^4 H9C2 cells were seeded onto a 96-well plate, respectively, and stabilized by culturing for 24 hours. A single administration group, drug administration groups and a control group were obtained by administering the anticancer agent (DOX) alone (0.01 to 100 μM) or together with the prodrug nanoparticles of Example 4 and Comparative Example 3 (0.01 to 100 μM), respectively, to each well and incubating at 37° C. for 48 hours. After the incubation was completed, a culture medium containing a 10% CCK-8 solution was added. After conducting reaction for 20 minutes, analysis was made with a microplate reader at a wavelength of 450 nm. After plotting cell survivability depending on concentration, IC50 (half-maximal inhibitory concentration) values were obtained for the single administration group, drug administration groups and control group using the GraphPad Prism 8 software (GraphPad Software, San Diego, CA, USA).

Data set [2] deals with HT29 cells. Kind of data set: cells. The settings on record: 48 hours; for IC50: CCK-8. The class given is cell-based, human. The protocol: as §1
Data set [3] deals with HT29 tumor-bearing BALB/c nu/nu mice. Kind of data set: Distribution of prodrug nanoparticles in vivo (fluorescence imaging, ex vivo organs, tissue sections). The procedure:
After 3, 6 and 9 hours of the drug injection, the test groups were imaged using an IVIS Lumina Series III system. After euthanasia, liver, lung, spleen, kidney, heart and tumor tissues were recovered.
The obtained tissues were sliced into 10 μm-thick sections, which were mounted individually on a slide glass, and washed tice with DPBS. Then, after staining with […] for 20 minutes, fluorescence signals were observed by CLSM.

For data set [4], the system named is HT29 cells. Kind of data set: Degradation after cellular uptake (MALDI-TOF of cell filtrate). The class given is cell-based, human. The conditions noted are these: 100 μM, 48 hours. The procedure:
In order to further investigate whether the prodrug nanoparticles are degraded after cellular uptake, 1×10^6 HT29 cells were seeded onto a 100-mm cell culture dish and stabilized by culturing for 24 hours. After administering the prodrug nanoparticles of Examples 4 to 6 and Comparative Example 3 (100 μM) to the cells, drug administration groups 1, 2 and 3 (FRRL-DOX, FRRLG-DOX, FLRRG-DOX) and a control group (FRRG-DOX) were obtained by incubating at 37° C. for 48 hours. Each group was washed with PBS and dispersed in distilled water (H2O). The dispersion was filtered through a 0.45-μm syringe filter, and the recovered filtrate was subjected to mass analysis by MALDI-TOF.

In data set [5] the test system is HT29 colon cancer cells. Kind of data set: Cellular uptake and intranuclear localization (CLSM). The class given is cell-based, human. The conditions noted are these: 5 μM. The protocol: The cellular uptake and intranuclear localization of the prodrug nanoparticles (5 μM) were analyzed using HT29 colon cancer cells. In order to investigate the intracellular behavior and intracellular interaction of the prodrug nanoparticles, 2×10^5 HT29 cells were seeded onto a glass-bottomed confocal dish. After stabilizing the cells by culturing for 24 hours, they were treated with the prodrug nanoparticles of Examples 4 to 6 and Comparative Example 3 (5 μM), and drug administration groups 1, 2 and 3 (FRRL-DOX, FRRLG-DOX, FLRRG-DOX) and a control group (FRRG-DOX) were obtained by incubating at 37° C. for 0, 24 and 48 hours. […] Each group was imaged by CLSM to obtain a fluorescence image, and fluorescence intensity was quantified from the fluorescence image to investigate the distribution of the prodrug nanoparticles using the Image-Pro software (Media Cybernetics, Rockville, MD, USA).

Data set [6] deals with tumor-free BALB/c mice. The settings on record: multiple administration; for body weight change: once in 3 days, 8 times.
Procedure: 8 days later, the mice were euthanized and liver, lung, spleen, kidney, heart and cancer tissues were recovered. Each of the recovered liver, lung, spleen, kidney, heart and cancer tissues was fixed with 4% paraformaldehyde for 15 minutes, embedded in wax, and then sliced to 10 μm-thick sections. Then, after staining with H&E, the morphological damage to the tissues was analyzed by imaging with an optical microscope.
(§3) For evaluation of hematotoxicity, 1 mL of blood was taken from each test group, and blood plasma was separated by centrifuging at 4,500 rpm for 20 minutes. Blood analysis was performed according to the instructions of KNOTUS Co., Ltd. (Incheon, Korea).
The subject of data set [7] is tumor-free BALB/c mice. Kind of data set: Toxicity in vivo, single administration. The conditions noted are these: single i.v. administration.
Procedure: Test groups 9 to 12 were prepared by injecting an anticancer agent (DOX) (3 or 4 mg/kg) or the prodrug nanoparticles of Example 4 (4 or 10 mg/kg based on DOX concentration) once to tumor-free BALB/c mice (5-week-old) via the tail vein (n=5 for each test group).
Tumor volume, body weight and survival rate were measured every day after injection of the drug to the test groups. 8 days later, the mice were euthanized and liver, lung, spleen, kidney, heart and cancer tissues were recovered. Each of the recovered liver, lung, spleen, kidney, heart and cancer tissues was fixed with 4% paraformaldehyde for 15 minutes, embedded in wax, and then sliced to 10 μm-thick sections. Then, after staining with H&E, the morphological damage to the tissues was analyzed by imaging with an optical microscope.
as §3
Data set [8] can be described thus: Cytotoxicity CCK-8. The settings on record: rat, H9C2 cells; at 1 to 100 μM, 48 hours; read-out: survival rate of normal cells. The class given is cell-based, rat. The protocol: as §1
Data set [9] has as its system HT29 tumor-bearing BALB/c nu/nu mice. Kind of data set: Anticancer effect in animal model of cancer.
Procedure: (§4) 1×10^7 HT29 cells were subcutaneously injected into the left flank of the 5-week-old male BALB/c nu/nu mice. An animal model of cancer was prepared by breeding the mice until the tumor size grew to about 60 to 80 mm^3.
(§5) Test groups 6 to 8 were prepared by injecting an anticancer agent (DOX) (3 mg/kg) or the prodrug nanoparticles of Example 4 (4 or 10 mg/kg based on DOX concentration) to the animal model of cancer via the tail vein once in 3 days at the same time (n=5 for each test group). The overall treatment period was 26 days, and the number of drug administration was 8 times.
(§6) After the treatment period, tumor volume, body weight and survival rate of each test group were measured every 2 days. After euthanasia, liver, lung, spleen, kidney, heart and cancer tissues were recovered and subjected to histological and TUNEL assay.
(§7) The tumor volume was calculated from the longest diameter×(the shortest diameter)^2×0.53 of the cancer tissue, and a tumor volume larger than 1,000 mm^3 was judged as death.
(§8) For histological analysis, each of the recovered liver, lung, spleen, kidney, heart and cancer tissues was fixed with 4% paraformaldehyde for 15 minutes, embedded in wax, and then sliced to 10 μm-thick sections. Then, after staining with H&E, the morphological damage to the tissues was analyzed by imaging with an optical microscope.
(§9) The cancer tissue was stained by TUNEL (terminal deoxynucleotidyl transferase dUTP nick end labeling) analysis for visualization of the apoptotic region.
Data set [10] concerns T1, FRRL-DOX conjugate / prodrug nanoparticles of Example 4 (N-acylated Phe-Arg-Arg-Leu conjugated with doxorubicin).
T1 sequence: FRRG

The subject of data set [11] is HT29 tumor-bearing BALB/c nu/nu mice. The conditions noted are these: mouse, in vivo, iv.
Procedure: as §4, §5, §6, §7, §8, §9
Data set [12] has as its system H9C2 cells. Kind of data set: Cell-specific activity, DOX fluorescence distribution (CLSM). The class given is cell-based, rat. The conditions noted are these: 5 μM, 48 hours. The procedure:
(§2) Then, experiment was performed as follows to analyze specific activity for cells. First, 2×10^5 HT29 cells and 2×10^5 H9C2 cells were seeded onto a glass-bottomed confocal dish, respectively. Cathepsin B-inhibited cells (HT29-Inh) were prepared by pretreating HT29 cells with Z-Phe-Ala-FMK (20 μM) for 24 hours. After stabilizing the cells by culturing for 24 hours, and administering the anticancer agent (DOX) alone (5 μM) or together with the prodrug nanoparticles of Example 4 and Comparative Example 3 (5 μM), respectively, a single administration group, drug administration groups and a control group were obtained by incubating at 37° C. for 48 hours. […] Each group was imaged by CLSM to obtain a fluorescence image, and fluorescence intensity was quantified from the fluorescence image to investigate the distribution of the prodrug nanoparticles using the Image-Pro software (Media Cybernetics, Rockville, MD, USA).

For data set [13], the system named is Cathepsin B-inhibited cells (HT29-Inh). The description is as above. The class given is cell-based, human. The settings on record: HT29-Inh cells (Z-Phe-Ala-FMK 20 μM pretreated), 5 μM, 48 hours. The protocol: as §2
Data set [14] addresses lysosome enzymes other than cathepsin B. Kind of data set: cell-based or functional assay.
Where [15] appears, read: test group 4, 4 mg/kg based on DOX.
[16] abbreviates: i.v. once in 3 days, test group 6.

Take `COc1cccc2c1C(=O)c1c(O)c3c(c(O)c1C2=O)C[C@@](O)(C(=O)CO)C[C@@H]3O[C@H]1C[C@H](NC(=O)CNC(=O)[C@H](CCCNC(=N)N)NC(=O)[C@H](CCCNC(=N)N)NC(=O)[C@H](Cc2ccccc2)NC(C)=O)[C@H](O)[C@H](C)O1` [Comparative Example 3] (Ac-FRRG-{Doxorubicin(3'-N)}): the results for the IC50 in [1] and in data set [2] were 158 µM and 14.1 µM, respectively. Also, the “accumulation in liver tissues relative to cancer tissues” value in [3] (test group 2, 4 mg/kg based on DOX, i.v.) is on record as 2.4 times; in data set [3] (test group 3, 10 mg/kg based on DOX, i.v.), 6.7 times.

As to “Example 6: conjugate of N-terminally acylated peptide Phe-Leu-Arg-Arg-Gly (SEQ ID NO: 3) and doxorubicin; self-assembled prodrug nanoparticles (acyl-FLRRG-{DOX}; reading uncertain; also: printed as FLRRG-DOX)”, in [4], the “degradation of prodrug nanoparticles in the cancer cells (MALDI-TOF)” value was “slightly low sensitivity to cathepsin B”. The “anticancer agent (DOX) delivered into the nucleus (ratio of accumulation in the nucleus)” value in [5] (48 h, fluorescence intensity nucleus vs cytoplasm) is on record as 21%. Further, the “location of red fluorescence (DOX) in the cells” value in data set [5] (confocal images) is on record as “mainly in the region other than the nucleus”.

As to `COc1cccc2c1C(=O)c1c(O)c3c(c(O)c1C2=O)C[C@@](O)(C(=O)CO)C[C@@H]3O[C@H]1C[C@H](NC(=O)[C@H](CC(C)C)NC(=O)[C@H](CCCNC(=N)N)NC(=O)[C@H](CCCNC(=N)N)NC(=O)[C@H](Cc2ccccc2)NC(C)=O)[C@H](O)[C@H](C)O1` [Example 4] (Ac-FRRL-{Doxorubicin(3'-N)}), in [6], the hematotoxicity result was “no hematotoxicity”. Further, the “histochemical analysis of organ tissues (H&E)” value (“histochemical analysis” for short) in [6] is listed as “no significant damage of organ tissues”; in data set [7], “no damaged organ tissue”. Also, the “all the mice survived healthily for” value in [6] (4 and 10 mg/kg based on DOX) is on record as “more than 26 days”. Besides, the body weight change result in [6] is “no body weight change”; in data set [7] (4 and 10 mg/kg based on DOX), “no significant change in body weight”. For the same molecule, the IC50 stood at 182 µM in [1] and 6.13 µM in data set [2]. In addition, the viability at 48 h in data set [8] turned out to be 80%. Further, the “survival rate of cancer cells” value in [2] (at 1 to 100 μM) came out at 0%. Besides, the “accumulation efficiency for cancer tissues (in vivo fluorescence imaging)” value in data set [3] (4 mg/kg based on DOX, i.v., 9 hours, vs DOX alone or Comparative Example 3) was “significantly high accumulation efficiency for cancer tissues”. The “cancer-targeting ability (fluorescence of isolated cancer tissue), times higher than DOX” value in [3] (4 mg/kg based on DOX, i.v., test group 4 vs 1) came out at 2.3 times. The “cancer-targeting ability (fluorescence of isolated cancer tissue), times higher than Comparative Example 3” value in [3] (4 mg/kg based on DOX, i.v., test group 4 vs 2) is reported as 1.4 times. In data set [3] (4 and 10 mg/kg based on DOX, i.v., test groups 4 and 5), the “accumulation in cancer tissues relative to kidney tissues” value is recorded as not below 2 times. For the same molecule, the “accumulation efficiency for liver tissues, times lower than Comparative Example 3” value in data set [3] (first of two printed values (4 and 10 mg/kg groups)) is 2.4 times; in data set [3] (second of two printed values (4 and 10 mg/kg groups)), 4.8 times. In addition, the “red fluorescence in cancer tissue sections, times stronger than test group 1” value in data set [3] (setting [15]) worked out at 6.7 times. In addition, in data set [3] (setting [15]), the “red fluorescence in cancer tissue sections, times stronger than test group 3” value is 2.6 times. For the same molecule, in data set [9] (repeated i.v. administration in tumor-bearing mice), the systemic toxicity entry is reported as “no severe systemic toxicity”.

“Cathepsin B (purchased from R&D Systems), enzyme in solution”: the “RP-HPLC peaks of conjugate and cleavage product over reaction time” value in [10] is “a peak of L-DOX was observed at 14.7 minutes 3 hours after the reaction. The peak of the FRRL-DOX conjugate began to decrease and was not detected at all 24 hours after the reaction”.

With `COc1cccc2c1C(=O)c1c(O)c3c(c(O)c1C2=O)C[C@@](O)(C(=O)CO)C[C@@H]3O[C@H]1C[C@H](N)[C@H](O)[C@H](C)O1` [DOX, Doxorubicin hydrochloride], the systemic toxicity result in data set [11] is “severe systemic toxicity”. For the same molecule, the “location of fluorescence of anticancer agent (DOX)” value in data set [12] is “penetrated into the cell nucleus”. Further, the “location of fluorescence of anticancer agent (DOX)” value in [13] is given as “penetrated into the cell nucleus”. In data set [6], the hematotoxicity result is “significant hematotoxicity”; the “histochemical analysis” value is “normal tissues were destroyed and damaged”; the body weight change result was “rapid body weight decrease”. Moreover, in [6] (DOX 3 and 4 mg/kg), the “all the mice died within” value is not above 20 days; the “levels of hemoglobin and hematocrit” value is recorded as “outside normal ranges”. In data set [7], the “histochemical analysis” value was “damaged severely”. The body weight decrease in data set [7] (3 and 4 mg/kg) is on record as not below 9%. The “survival rate in tumor cells versus normal cells” value in [1] (HT29 versus H9C2) was “no difference in the survival rate”. Besides, in data set [1] (Rattus norvegicus, H9c2), the IC50 is 0.12 µM. Moreover, the IC50 in data set [2] (Homo sapiens, HT-29) stood at 0.12 µM. For the same molecule, the “red fluorescence (DOX) in cancer tissue sections” value in [3] (4 mg/kg i.v., confocal, DAPI) is “hardly observed”. In data set [3] (4 mg/kg i.v., test group 1), the “fluorescence intensity in kidney tissues relative to cancer tissues” value was found to be 8.8 times. For the same molecule, the “histopathological analysis of cancer tissue” value in data set [9] (H&E, after treatment) is “relatively weak damage of the cancer tissue”. Further, the “TUNEL assay of cancer tissue (green fluorescence)” value in data set [9] (after treatment) is “weak green fluorescence”. Moreover, in data set [9] (setting [16]), the “all the mice died within” value is reported as not above 20 days and the death observed within is reported as not above 5 days.

Turning to FLRRG-{DOX} (not fully specified (N-terminus); printed as FLRRG-DOX), the degradation ratio (%) in [14] is less than 5%.

Regarding FRRLG-{DOX} (not fully specified (N-terminus); printed as FRRLG-DOX), the degradation ratio (%) in data set [14] was less than 5%.
